Assay results reported in patent US20050009840A1 (SUGEN, INC., priority 2003, published 2005).

Target: T1, Met kinase domain (GST fusion protein) (Homo sapiens, UniProt P08581)
T1 construct: Purified GST fusion protein containing the Met kinase domain
Experiment: Met transphosphorylation assay (ELISA, poly(glu-tyr) substrate);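 note: Cell-free ELISA with plate-bound poly(Glu:Tyr 4:1) phosphorylated by GST-fused Met kinase domain plus ATP and Mn2+, phosphotyrosine detected by anti-phosphotyrosine antibody with HRP and ABTS read-out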
Assay type: biochemical
Conditions: Table 2; read-out: Met IC50
Experimental: General procedure is as follows: a compound is introduced to cells expressing the test kinase, either naturally or recombinantly, for a selected period of time after which, if the test kinase is a receptor, a ligand known to activate the receptor is added. The cells are lysed and the lysate is transferred to the wells of an ELISA plate previously coated with a specific antibody recognizing the substrate of the enzymatic phosphorylation reaction. Non-substrate components of the cell lysate are washed away and the amount of phosphorylation on the substrate is detected with an antibody specifically recognizing phosphotyrosine compared with control cells that were not contacted with a test compound.
Met Transphosphorylation Assay
This assay is used to measure phosphotyrosine levels on a poly(glutamic acid:tyrosine, 4:1) substrate as a means for identifying agonists/antagonists of met transphosphorylation of the substrate.
PBS, Gibco Catalog # 450-1300EB • 4. 50 mM HEPES • 5. […] Purified GST fusion protein containing the Met kinase domain, SUGEN, Inc. • 7. TBST Buffer. • 8. 10% aqueous (MilliQue H2O) DMSO. • 9. […] 2× Kinase Dilution Buffer: for 100 mL, mix 10 mL 1M HEPESat pH 7.5 with 0.4 mL 5% BSA/PBS, 0.2 mL 0.1 M sodium orthovanadate and 1 mL 5M sodium chloride in 88.4 mL dH2O. • 11. 4× ATP Reaction Mixture: for 10 mL, mix 0.4 mL 1 M manganese chloride and 0.02 mL 0.1 M ATP in 9.56 mL dH2O. • 12. 4× Negative Controls Mixture: for 10 mL, mix 0.4 mL 1 M manganese chloride in 9.6 mL dH2O. • 13. […] 500 mM EDTA. • 15. Antibody Dilution Buffer: for 100 mL, mix 10 mL 5% BSA/PBS, 0.5 mL 5% Carnation® Instant Milk in PBS and 0.1 mL 0.1 M sodium orthovanadate in 88.4 mL TBST. • 16. Rabbit polyclonal antophosphotyrosine antibody, SUGEN, Inc. • 17. Goat anti-rabbit horseradish peroxidase conjugated antibody, Biosource, Inc. • 18. ABTS Solution: for 1 L, mix 19.21 g citric acid, 35.49 g Na2HPO4 and 500 mg ABTS with sufficient dH2O to make 1 L. • 19. ABTS/H2O2: mix 15 mL ABST solution with 2μL H2O2 five minutes before use. • 20. 0.2 M HCl Procedure: • 1. Coat ELISA plates with 2 μg Poly(Glu-Tyr) in 100 μL PBS, hold-overnight at 4° C. • 2. Block plate with 150 μL of 5% BSA/PBS for 60 min. • 3. Wash plate twice with PBS then once with 50 mM Hepes buffer pH 7.4. • 4. Add 50 μl of the diluted kinase to all wells. (Purified kinase is diluted with Kinase Dilution Buffer. Final concentration should be 10 ng/well.) • 5. Add 25 μL of the test compound (in 4% DMSO) or DMSO alone (4% in dH2O) for controls to plate. • 6. Incubate the kinase/compound mixture for 15 minutes. • 7. Add 25 μL of 40 mM MnCl2 to the negative control wells. • 8. Add 25 μL ATP/MnCl2 mixture to the all other wells (except the negative controls). Incubate for 5 min. • 9. Add 25 μL 500 mM EDTA to stop reaction. • 10. Wash plate 3× with TBST. • 11. Add 100 μL rabbit polyclonal anti-Ptyr diluted 1:10,000 in Antibody Dilution Buffer to each well. Incubate, with shaking, at room temperature for one hour. • 12. Wash plate 3× with TBST. • 13. […] Add 100 μL per well and incubate at room temperature, with shaking, for one hour. • 14. Wash plate 1× with PBS. • 15. Add 100 μl of ABTS/H2O2 solution to each well. • 16. If necessary, stop the development reaction with the addition of 100 μl of 0.2M HCl per well. • 17.

T1 sequence (P08581 1078-1345 limits assumed): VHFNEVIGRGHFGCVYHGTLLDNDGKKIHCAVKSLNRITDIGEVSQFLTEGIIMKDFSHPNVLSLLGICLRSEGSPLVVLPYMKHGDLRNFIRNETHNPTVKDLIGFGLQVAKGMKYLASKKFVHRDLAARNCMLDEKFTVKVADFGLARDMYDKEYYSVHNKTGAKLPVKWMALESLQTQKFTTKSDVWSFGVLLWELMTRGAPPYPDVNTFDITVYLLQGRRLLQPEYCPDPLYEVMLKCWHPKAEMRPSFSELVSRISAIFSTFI

IC50 [nM]	Compound
1640	Nc1ncc(-c2cccc(NS(=O)(=O)CCN3CCOCC3)c2)cc1OCc1c(F)ccc(F)c1Cl [Example I-257, 2-Morpholin-4-yl-ethanesulfonic acid {3-[6-amino-5-(2-chloro-3,6-difluoro-benzyloxy)-pyridin-3-yl]-phenyl}-amide]
1670	CCN(CC)CCS(=O)(=O)Nc1cccc(-c2cnc(N)c(OCc3c(F)ccc(F)c3Cl)c2)c1 [Example I-258, 2-Diethylamino-ethanesulfonic acid {3-[6-amino-5-(2-chloro-3,6-difluoro-benzyloxy)-pyridin-3-yl]-phenyl}amide]
500	CN(C)CCS(=O)(=O)Nc1cccc(-c2cnc(N)c(OCc3c(F)ccc(F)c3Cl)c2)c1 [Example I-259, 2-Dimethylamino-ethanesulfonic acid {3-[6-amino-5-(2-chloro-3,6-difluoro-benzyloxy)-pyridin-3-yl]-phenyl}-amide]
1630	Nc1ncc(-c2cccc(NS(=O)(=O)CCN3CCCCC3)c2)cc1OCc1c(F)ccc(F)c1Cl [Example I-260, 2-Pipendin-1-yl-ethanesulfonic acid {3-[6-amino-5-(2-chloro-3,6-difluoro-benzyloxy)-pyridin-3-yl]-phenyl}-amide]
1700	Nc1ncc(-c2cccc(NS(=O)(=O)CCN3CC[C@@H](CO)C3)c2)cc1OCc1c(F)ccc(F)c1Cl [Example I-261, 2-[(3R)-3-Hydroxymethyl-pyrrolidin-1-yl]-ethanesulfonic acid {3-[6-amino-5-(2-chloro-3,6-difluoro-benzyloxy)-pyridin-3-yl]-phenyl}-amide]
1500	Nc1ncc(-c2cccc(NS(=O)(=O)CCN3CCC(O)CC3)c2)cc1OCc1c(F)ccc(F)c1Cl [Example I-262, 2-(4-Hydroxy-piperidin-1-yl)-ethanesulfonic acid {3-[6-amino-5-(2-chloro-3,6-difluoro-benzyloxy)-pyridin-3-yl]-phenyl}-amide]
1140	Nc1ncc(-c2cccc(NS(=O)(=O)CCN3CCN(C(=O)CO)CC3)c2)cc1OCc1c(F)ccc(F)c1Cl [Example I-263, 2-[4-(2-Hydroxy-acetyl)-piperazin-1-yl]-ethanesulfonic acid {3-[6-amino-5-(2-chloro-3,6-difluoro-benzyloxy)-pyridin-3-yl]-phenyl}-amide]
1100	Nc1ncc(-c2cccc(NS(=O)(=O)CCN3CC[C@@H](O)C3)c2)cc1OCc1c(F)ccc(F)c1Cl [Example I-264, 2-[(3R)-3-Hydroxy-pyrrolidin-1-yl]-ethanesulfonic acid {3-[6-amino-5-(2-chloro-3,6-difluoro-benzyloxy)-pyridin-3-yl]-phenyl}-amide]
1000	Nc1ncc(-c2cccc(NS(=O)(=O)CCNCC3CC3)c2)cc1OCc1c(F)ccc(F)c1Cl [Example I-265, 2-(Cyclopropylmethyl-amino)-ethanesulfonic acid {3-[6-amino-5-(2-chloro-3,6-difluoro-benzyloxy)-pyridin-3-yl]-phenyl}-amide]
900	Nc1ncc(-c2cccc(NS(=O)(=O)CCNC3CC3)c2)cc1OCc1c(F)ccc(F)c1Cl [Example I-266, 2-Cyclopropylamino-ethanesulfonic acid {3-[6-amino-5-(2-chloro-3,6-difluoro-benzyloxy)-pyridin-3-yl]-phenyl}-amide]
4000	Nc1ncc(-c2cccc(N3CCCC3)c2)cc1OCc1c(F)ccc(F)c1Cl [Example I-268, 3-(2-Chloro-3,6-difluoro-benzyloxy)-5-(3-pyrrolidin-1-yl-phenyl)-pyridin-2-ylamine; compound with trifluoro-acetic acid]
180	CC(Oc1cc(-c2ccc(NS(=O)(=O)CCN3CCCCC3)cc2)cnc1N)c1c(F)ccc(F)c1Cl (stereo not drawn) [Example I-286, 2-Piperidin-1-yl-ethanesulfonic acid (4-{6-amino-5-[1-(2-cloro-3,6-difluoro-phenyl)-ethoxy]-pyridin-3-yl}-phenyl)-amide]
140	CC(Oc1cc(-c2ccc(NS(=O)(=O)CCN3CCC(O)CC3)cc2)cnc1N)c1c(F)ccc(F)c1Cl (stereo not drawn) [Example I-287, 2-(4-Hydroxy-piperidin-1-yl)-ethanesulfonic acid (4-{6-amino-5-[1-(2-chloro-3,6-difluoro-phenyl)-ethoxy]-pyridin-3-yl}-phenyl)-amide]
150	CC(Oc1cc(-c2ccc(NS(=O)(=O)CCN(C)C)cc2)cnc1N)c1c(F)ccc(F)c1Cl (stereo not drawn) [Example I-288]
160	CC(Oc1cc(-c2ccc(NS(=O)(=O)CCNC3CC3)cc2)cnc1N)c1c(F)ccc(F)c1Cl (stereo not drawn) [Example I-289, 2-Cyclopropylamino-ethanesulfonic acid (4-{6-amino-5-[1-(2-chloro-3,6-difluoro-phenyl)-ethoxy]-pyridin-3-yl}-phenyl)-amide]
51	CC(Oc1cc(-c2cccc(C(=O)N3CC[C@@H](N)C3)c2)cnc1N)c1c(Cl)ccc(F)c1Cl (stereo partly drawn) [Example I-293]
79	CC(Oc1cc(-c2ccc(C(=O)N3CCN(C)CC3)cc2)cnc1N)c1c(Cl)ccc(F)c1Cl (stereo not drawn) [Example I-295, (4-{6-Amino-5-[1-(2,6-dichloro-3-fluoro-phenyl)-ethoxy]-pyridin-3-yl}-phenyl)-(4-methyl-piperazin-1-yl)-methanone]

IC50 [nM]	Compound
164	CC(Oc1cc(-c2ccc(NS(=O)(=O)CCNC3CC3)cc2)cnc1N)c1c(Cl)ccc(F)c1Cl (stereo not drawn) [Example I-297, 2-Cyclopropylamino-ethanesulfonic acid (4-{6-amino-5-[1-(2,6-dichloro-3-fluoro-phenyl)-ethoxy]-pyridin-3-yl}-phenyl)-amide]
62	CC(Oc1cc(-c2ccc(NS(=O)(=O)CCN3CC[C@@H](O)C3)cc2)cnc1N)c1c(Cl)ccc(F)c1Cl (stereo partly drawn) [Example I-299]
64	CC(Oc1cc(-c2ccc(C(=O)NCCCN3CCCC3)cc2)cnc1N)c1c(Cl)ccc(F)c1Cl (stereo not drawn) [Example I-301, 4-{6-Amino-5-[1-(2,6-dichloro-3-fluoro-phenyl)-ethoxy]-pyridin-3-yl}-N-(3-pyrrolidin-1-yl-propyl)-benzamide]
71	CC(Oc1cc(-c2ccc(C(=O)NCCN3CCOCC3)cc2)cnc1N)c1c(Cl)ccc(F)c1Cl (stereo not drawn) [Example I-302, 4-{6-Amino-5-[1-(2,6-dichloro-3-fluoro-phenyl)-ethoxy]-pyridin-3-yl}-N-(2-morpholin-4-yl-ethyl)-benzamide]
72	CC(Oc1cc(-c2ccc(C(=O)N3CC[C@@H](N)C3)cc2)cnc1N)c1c(Cl)ccc(F)c1Cl (stereo partly drawn) [Example I-304, (4-{6-Amino-5-[1-(2,6-dichloro-3-fluoro-phenyl)-ethoxy]-pyridin-3-yl}-phenyl)-((R)-3-amino-pyrrolidin-1-yl)-methanone]
180	CC(Oc1cc(-c2ccc(C(=O)N3CCC(N)CC3)cc2)cnc1N)c1c(Cl)ccc(F)c1Cl (stereo not drawn) [Example I-305, (4-{6-Amino-5-[1-(2,6-dichloro-3-fluoro-phenyl)-ethoxy]-pyridin-3-yl}-phenyl)-(4-amino-piperidin-1-yl)-methanone]
24	CC(Oc1cc(-c2ccc(C(=O)N3CC[C@H](O)C3)cc2)cnc1N)c1c(Cl)ccc(F)c1Cl (stereo partly drawn) [Example I-306, (4-{6-Amino-5-[1-(2,6-dichloro-3-fluoro-phenyl)-ethoxy]-pyridin-3-yl}-phenyl)-((S)-3-hydroxy-pyrrolidin-1-yl)-methanone]
22	CC(Oc1cc(-c2ccc(C(=O)N3CC[C@@H](O)C3)cc2)cnc1N)c1c(Cl)ccc(F)c1Cl (stereo partly drawn) [Example I-307, (4-{6-Amino-5-[1-(2,6-dichloro-3-fluoro-phenyl)-ethoxy]-pyridin-3-yl}-phenyl)-((R)-3-hydroxy-pyrrolidin-1-yl)-methanone]
33	CC(Oc1cc(-c2ccc(C(=O)N3CCC[C@@H]3CO)cc2)cnc1N)c1c(Cl)ccc(F)c1Cl (stereo partly drawn) [Example I-308, (4-{6-Amino-5-[1-(2,6-dichloro-3-fluoro-phenyl)-ethoxy]-pyridin-3-yl}-phenyl)-((R)-2-hydroxymethyl-pyrrolidin-1-yl)-methanone]
40	CCN(CC)CCNC(=O)c1ccc(-c2cnc(N)c(OC(C)c3c(Cl)ccc(F)c3Cl)c2)cc1 (stereo not drawn) [Example I-309, 4-{6-Amino-5-[1-(2,6-dichloro-3-fluoro-phenyl)-ethoxy]-pyridin-3-yl}-N-(2-diethylamino-ethyl)-benzamide]
62	CC(Oc1cc(-c2cccc(C(=O)N3CCN(C)CC3)c2)cnc1N)c1c(Cl)ccc(F)c1Cl (stereo not drawn) [Example I-312]
69	CC(Oc1cc(-c2cccc(C(=O)NC3CCN(C)CC3)c2)cnc1N)c1c(Cl)ccc(F)c1Cl (stereo not drawn) [Example I-313, 3-{6-Amino-5-[1-(2,6-dichloro-3-fluoro-phenyl)-ethoxy]-pyridin-3-yl}-N-(1-methyl-piperidin-4-yl) benzamide]
60	CC(Oc1cc(-c2cccc(C(=O)N3CCC[C@H]3CN3CCCC3)c2)cnc1N)c1c(Cl)ccc(F)c1Cl (stereo partly drawn) [Example I-314, (3-{6-Amino-5-[1-(2,6-dichloro-3-fluoro-phenyl)-ethoxy]-pyridin-3-yl}-phenyl)-((S)-2-pyrrolidin-1-ylmethyl-pyrrolidin-1-yl)-methanone]
69	CC(=O)N1CCN(CCNC(=O)c2cccc(-c3cnc(N)c(OC(C)c4c(Cl)ccc(F)c4Cl)c3)c2)CC1 (stereo not drawn) [Example I-315, N-[2-(4-Acetyl-piperazin-1-yl)-ethyl]-3-{6-amino-5-[1-(2,6-dichloro-3-fluoro-phenyl)-ethoxy]-pyridin-3-yl}-benzamide]
48	CC(Oc1cc(-c2cccc(C(=O)N3CC[C@H](N)C3)c2)cnc1N)c1c(Cl)ccc(F)c1Cl (stereo partly drawn) [Example I-316, (3-{6-Amino-5-[1-(2,6-dichloro-3-fluoro-phenyl)-ethoxy]-pyridin-3-yl}-phenyl)-((S)-3-amino-pyrrolidin-1-yl)-methanone]
130	CC(Oc1cc(-c2cccc(C(=O)N3CCC[C@@H]3CN3CCCC3)c2)cnc1N)c1c(Cl)ccc(F)c1Cl (stereo partly drawn) [Example I-318, (3-{6-Amino-5-[1-(2,6-dichloro-3-fluoro-phenyl)-ethoxy]-pyridin-3-yl}-phenyl)-((R)-2-pyrrolidin-1-ylmethyl-pyrrolidin-1-yl)-methanone]
